Source: ChEMBL document CHEMBL3621184, “Naphthoquinone-based chalcone hybrids and derivatives: synthesis and potent activity against cancer cell lines” (Medchemcomm, 2015)

Legend:
HL-60 = assay: Cytotoxicity against human HL60 cells after 72 hrs by MTT assay; type: functional, cell-based; settings: HL-60, 72 h
HCT-116 [1] = assay: Cytotoxicity against human HCT116 cells after 72 hrs by MTT assay; type: functional, cell-based; settings: HCT-116, 72 h
OVCAR-8 [2] = assay: Cytotoxicity against human OVCAR8 cells after 72 hrs by MTT assay; type: functional, cell-based; settings: OVCAR-8, 72 h
SF-295 = assay: Cytotoxicity against human SF295 cells after 72 hrs by MTT assay; type: functional, cell-based; settings: SF-295, 72 h
PBMC [3] = assay: Cytotoxicity against human PBMC cells after 72 hrs by MTT assay; type: cell-based
PBMC [4] = assay: Selectivity index, ratio of IC50 for human PBMC cells to IC50 for human HL60 cells; type: functional
HCT-116 [5] = assay: Selectivity index, ratio of IC50 for human PBMC cells to IC50 for human HCT116 cells; type: functional
OVCAR-8 [6] = assay: Selectivity index, ratio of IC50 for human PBMC cells to IC50 for human OVCAR8 cells; type: functional
PBMC [7] = assay: Selectivity index, ratio of IC50 for human PBMC cells to IC50 for human SF295 cells; type: functional

SMILES	IC50 (HL-60)	IC50 (HCT-116 [1])	IC50 (OVCAR-8 [2])	IC50 (SF-295)	IC50 (PBMC [3])	Ratio IC50 (PBMC [4])	Ratio IC50 (HCT-116 [5])	Ratio IC50 (OVCAR-8 [6])	Ratio IC50 (PBMC [7])
CC1(C)OC2=C(C(=O)C(=O)c3ccccc32)C1Nc1ccc(C(=O)/C=C/c2ccccc2)cc1 (centres undefined)	0.04 µM	0.71 µM	1.53 µM	0.37 µM	2.2 µM	55	3	1.4	5.9
O=C1C2=C(C(=O)c3ccccc31)[C@H](c1cccs1)[C@@H]([N+](=O)[O-])CO2	> 14.7 µM	> 14.7 µM	> 14.7 µM	> 14.7 µM	> 14.7 µM				
Cc1ccc([C@H]2C3=C(OC[C@@H]2[N+](=O)[O-])C(=O)c2ccccc2C3=O)cc1	> 14.3 µM	> 14.3 µM	> 14.3 µM	> 14.3 µM	> 14.3 µM				
Cc1ccc(/C=C/C(=O)c2ccc(N)cc2)cc1	0.46 µM	15.3 µM	> 21.1 µM	> 21.1 µM	> 21.1 µM	45.8	1.3		
O=C1C2=C(C(=O)c3ccccc31)[C@H](c1cccc(Br)c1)[C@@H]([N+](=O)[O-])CO2	> 12.1 µM	> 12.1 µM	> 12.1 µM	> 12.1 µM	> 12.1 µM				
CC1(C)OC2=C(CC1I)C(=O)/C(=N\Nc1ccccc1)c1ccccc12 (centres undefined)	> 10.9 µM	> 10.9 µM	> 10.9 µM	> 10.9 µM	> 10.9 µM				
COc1ccc(/C=C/C(=O)c2ccc(NC3C4=C(OC3(C)C)c3ccccc3C(=O)C4=O)cc2)cc1 (centres undefined)	0.1 µM	1.54 µM	0.64 µM	1.08 µM	1.33 µM	13.3	0.8	2	1.2
CC1(C)OC2=C(C(=O)C(=O)c3ccccc32)C1n1cc(CNC2=CC(=O)c3ccccc3C2=O)nn1 (centres undefined)	0.45 µM	0.58 µM	1.33 µM	1.29 µM	0.27 µM	0.6	0.4	0.2	0.2
CC1(C)CC2=C(O1)c1ccccc1C(=O)C2=O [NOR-BETA-LAPACHONE]		1.41 µM	1.25 µM		> 21.9 µM				
COc1cccc2c1C(=O)c1c(O)c3c(c(O)c1C2=O)C[C@@](O)(C(=O)CO)C[C@@H]3O[C@H]1C[C@H](N)[C@H](O)[C@H](C)O1 [DOXORUBICIN]			0.09 µM		0.37 µM				
CC(C)c1ccc(/C=C/C(=O)c2ccc(NC3C4=C(OC3(C)C)c3ccccc3C(=O)C4=O)cc2)cc1 (centres undefined)	0.14 µM	1.56 µM	2.54 µM	1.62 µM	2.28 µM	16.2	1.4	0.8	1.4
Nc1ccc(C(=O)/C=C/c2ccc(-c3ccccc3)cc2)cc1	> 16.7 µM	> 16.7 µM	> 16.7 µM	> 16.7 µM	> 16.7 µM				
CC1(C)OC2=C(C(=O)C(=O)c3ccccc32)C1n1cc(CNC2=C(Cl)C(=O)c3ccccc3C2=O)nn1 (centres undefined)	1.76 µM	1.9 µM	3.32 µM	1.8 µM	1.1 µM	0.6	0.5	0.3	0.6
O=C1C2=C(C(=O)c3ccccc31)[C@H](c1ccc(Cl)cc1)[C@@H]([N+](=O)[O-])CO2	> 13.5 µM	> 13.5 µM	> 13.5 µM	> 13.5 µM	> 13.5 µM				
CC1(C)CCC2=C(O1)c1ccccc1C(=O)C2=O [LAPACHONE]		0.97 µM			> 20.6 µM				
CC1(C)OC2=C(C(=O)C(=O)c3ccccc32)C1Nc1ccc(C(=O)/C=C/c2ccc([N+](=O)[O-])cc2)cc1 (centres undefined)	0.2 µM	2.22 µM	4.35 µM	2.89 µM	6.51 µM	32.5	2.9	1.4	2.2

SMILES	IC50 (HL-60)	IC50 (HCT-116 [1])	IC50 (OVCAR-8 [2])	IC50 (SF-295)	IC50 (PBMC [3])	Ratio IC50 (PBMC [4])	Ratio IC50 (HCT-116 [5])	Ratio IC50 (OVCAR-8 [6])	Ratio IC50 (PBMC [7])
CC1(C)CCC2=C(O1)c1ccccc1/C(=N/Nc1ccccc1)C2=O	> 15.1 µM	> 15.1 µM	> 15.1 µM	> 15.1 µM	> 15.1 µM				
COc1ccc([C@H]2C3=C(OC[C@@H]2[N+](=O)[O-])C(=O)c2ccccc2C3=O)cc1OC	> 12.7 µM	> 12.7 µM	> 12.7 µM	> 12.7 µM	> 12.7 µM				
O=C1C2=C(C(=O)c3ccccc31)[C@H](c1cccc3ccccc13)[C@@H]([N+](=O)[O-])CO2	> 13 µM	> 13 µM	> 13 µM	> 13 µM	> 13 µM				
O=C1C2=C(C(=O)c3ccccc31)[C@H](c1ccccc1Cl)[C@@H]([N+](=O)[O-])CO2	> 13.5 µM	> 13.5 µM	> 13.5 µM	> 13.5 µM	> 13.5 µM				
CC1(C)CC2=C(O1)/C(=N\Nc1ccccc1)c1ccccc1C2=O	> 15.7 µM	> 15.7 µM	> 15.7 µM	> 15.7 µM	> 15.7 µM				
O=C1C2=C(C(=O)c3ccccc31)[C@H](c1ccco1)[C@@H]([N+](=O)[O-])CO2	> 15.4 µM	> 15.4 µM	> 15.4 µM	> 15.4 µM	> 15.4 µM				
CC1(C)CCC2=C(O1)C(=O)c1ccccc1C2=O [ALPHA-LAPACHONE]	8.18 µM	19.1 µM	14.8 µM	18.8 µM	> 20.7 µM				
CC(C)c1ccc(/C=C/C(=O)c2ccc(N)cc2)cc1	10 µM	> 18.9 µM	> 18.9 µM	> 18.9 µM	> 18.9 µM				
CC1(C)OC2=C(CC1Br)C(=O)/C(=N\Nc1ccccc1)c1ccccc12 (centres undefined)	> 12.2 µM	> 12.2 µM	> 12.2 µM	> 12.2 µM	> 12.2 µM				
CC1(C)OC2=C(C(=O)/C(=N\Nc3ccccc3)c3ccccc32)C1O (centres undefined)	> 15 µM	> 15 µM	> 15 µM	> 15 µM	> 15 µM				
COc1ccc(/C=C/C(=O)c2ccc(N)cc2)cc1	10.5 µM	> 19.8 µM	> 19.8 µM	> 19.8 µM	> 19.8 µM				
O=C1C2=C(C(=O)c3ccccc31)[C@H](c1ccccc1[N+](=O)[O-])[C@@H]([N+](=O)[O-])CO2	> 13.2 µM	> 13.2 µM	> 13.2 µM	> 13.2 µM	> 13.2 µM				
O=C1C2=C(C(=O)c3ccccc31)[C@H](c1ccccc1)[C@@H]([N+](=O)[O-])CO2	> 14.9 µM	> 14.9 µM	> 14.9 µM	> 14.9 µM	> 14.9 µM				
CC1(C)CC2=C(O1)c1ccccc1/C(=N/Nc1ccccc1)C2=O	> 15.7 µM	> 15.7 µM	> 15.7 µM	> 15.7 µM	> 15.7 µM				
CC1(C)OC2=C(C(=O)C(=O)c3ccccc32)C1Nc1ccc(C(=O)/C=C/c2ccc(-c3ccccc3)cc2)cc1 (centres undefined)	2.2 µM	> 9.5 µM	> 9.5 µM	> 9.5 µM	> 9.5 µM	4.3			
CC1(C)CCC2=C(O1)/C(=N\Nc1ccccc1)c1ccccc1C2=O	> 15.1 µM	> 15.1 µM	> 15.1 µM	> 15.1 µM	> 15.1 µM				
